The values below come from patent publication US20220041641A1, “QUATERNARY AMMONIUM SALTS AS INHIBITORS OF TRIMETHYLAMINE PRODUCTION” (Senda Biosciences, Inc., priority 2018, published 2022).

Where a name gives a salt, the structure may show the parent alone. Bounds are passed on as bounds.

Sequence of CutC from Proteus mirabilis (B4EYG1 entry or part of it): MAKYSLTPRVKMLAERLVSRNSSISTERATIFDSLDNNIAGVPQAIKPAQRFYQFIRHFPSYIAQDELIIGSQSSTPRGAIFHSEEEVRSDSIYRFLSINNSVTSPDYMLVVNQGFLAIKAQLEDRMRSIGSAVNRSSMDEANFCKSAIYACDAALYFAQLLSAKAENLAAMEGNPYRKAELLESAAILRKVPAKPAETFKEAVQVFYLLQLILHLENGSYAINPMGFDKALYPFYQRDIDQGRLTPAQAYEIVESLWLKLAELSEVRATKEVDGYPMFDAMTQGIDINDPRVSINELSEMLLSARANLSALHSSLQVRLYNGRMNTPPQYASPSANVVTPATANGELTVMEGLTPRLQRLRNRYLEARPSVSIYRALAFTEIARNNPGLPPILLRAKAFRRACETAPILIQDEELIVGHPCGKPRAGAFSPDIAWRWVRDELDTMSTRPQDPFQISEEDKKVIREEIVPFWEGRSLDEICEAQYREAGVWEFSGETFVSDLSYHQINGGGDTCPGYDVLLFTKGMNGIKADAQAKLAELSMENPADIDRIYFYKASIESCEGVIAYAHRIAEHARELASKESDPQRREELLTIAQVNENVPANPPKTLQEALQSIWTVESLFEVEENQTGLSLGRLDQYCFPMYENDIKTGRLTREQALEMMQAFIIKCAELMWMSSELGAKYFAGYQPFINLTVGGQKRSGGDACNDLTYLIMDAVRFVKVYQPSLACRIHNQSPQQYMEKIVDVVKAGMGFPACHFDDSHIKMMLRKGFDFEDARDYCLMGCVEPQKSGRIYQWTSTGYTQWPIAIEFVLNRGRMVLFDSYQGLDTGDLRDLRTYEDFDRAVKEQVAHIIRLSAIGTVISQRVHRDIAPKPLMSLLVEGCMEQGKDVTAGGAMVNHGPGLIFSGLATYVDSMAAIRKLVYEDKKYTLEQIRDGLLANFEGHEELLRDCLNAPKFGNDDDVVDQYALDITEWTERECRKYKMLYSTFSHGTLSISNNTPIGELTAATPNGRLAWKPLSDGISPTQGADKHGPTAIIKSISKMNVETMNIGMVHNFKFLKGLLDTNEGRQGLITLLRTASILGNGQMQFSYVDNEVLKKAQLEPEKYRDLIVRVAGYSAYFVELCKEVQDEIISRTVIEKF
Sequence of CutC from Proteus mirabilis (B4EYG0 entry or part of it, further chain): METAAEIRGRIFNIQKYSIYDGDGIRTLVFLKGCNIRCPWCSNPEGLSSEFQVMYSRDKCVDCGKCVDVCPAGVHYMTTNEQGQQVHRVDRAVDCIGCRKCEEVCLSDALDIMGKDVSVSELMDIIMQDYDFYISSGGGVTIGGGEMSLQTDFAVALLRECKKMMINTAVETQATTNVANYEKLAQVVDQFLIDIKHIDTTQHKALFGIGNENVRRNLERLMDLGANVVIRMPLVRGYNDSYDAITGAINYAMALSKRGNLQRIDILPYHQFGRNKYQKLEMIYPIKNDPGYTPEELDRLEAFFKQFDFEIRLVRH

The first experiment deals with CutC from Proteus mirabilis (Proteus mirabilis, UniProt B4EYG1). As to the kind of experiment: Cell-based assay for TMA production from a native producer (P. mirabilis). As to conditions: d9-TMA from 1 mM d9-choline, 5 h, 37° C.; value 10 given when no fit or % TMA remaining at 10 μM higher than 15%; read-out: Average IC50 Whole cell P. mirabilis. The text has this:
In each bacterium, CutC was modified into its activated form by a cognate activating enzyme, CutD (protein EDU36696.1 for C. sporogenes; protein WP_004249185.1 for P. mirabilis). […] Trimethylamine may subsequently be converted by human enzymes such as flavin monooxygenase 3 to trimethylamine N-oxide, which might be associated with negative health consequences in humans.
A compound's ability to inhibit CutC from Proteus mirabilis and C. sporogenes from converting choline into trimethylamine was tested in cells as described. A BHI blood plate was inoculated with a frozen stock of Proteus mirabilis or Clostridium sporogenes under anaerobic conditions. A single colony was isolated from the plate and inoculated into 5 mL BHI supplemented with 1 mM choline under anaerobic conditions. The liquid cultures were grown overnight at 37° C.
To prepare each sample, 300 μL of the saturated culture was then inoculated into a 30 mL dilution blank under anaerobic conditions. 1 mM (trimethyl-d9)-choline and a sufficient amount of a compound to obtain a final concentration of 10 μM were added to the inoculated dilution blank. […] The mixture was incubated at 37° C. for 5 h. […] After centrifugation, the samples were analyzed by LCMS to determine the amount of d9-TMA produced.
With `C[N+]1(CF)CCC[C@@H]1CO` (stereo partly drawn) [Compound 151, (2R)-1-(fluoromethyl)-2-(hydroxymethyl)-1-methylpyrrolidin-1-ium Iodide], the IC50 worked out at 0.89 µM.

As to `C[N+]12CCC(O)(CC1)CC2` [Compound 149, 4-hydroxy-1-methylquinuclidin-1-ium], the half-maximal inhibitory concentration (IC50) is not below 10 µM.

`C#CC[C@@H](C(=O)O)[N+](C)(C)C` [Compound 152, (S)-1-carboxy-N,N,N-trimethylbut-3-yn-1-aminium Iodide]: the IC50 was not below 10 µM.

Take `C#CC[N+](C)(C)CC(=O)O[C@H]1CO[C@H]2[C@@H]1OC[C@H]2OC(=O)C[N+](C)(C)CC#C` [Compound 69, N,N′-((((3R,3aR,6S,6aR)-hexahydrofuro[3,2-b]furan-3,6-diyl)bis(oxy))bis(2-oxoethane-2,1-diyl))bis(N,N-dimethylprop-2-yn-1-aminium) bistrifluoroacetate]: the 50% inhibitory concentration (IC50) was not below 10 µM.

On to `C[N+](C)(CCO)CC1CCC1` [Compound 194, (cyclobutylmethyl)(2-hydroxyethyl)dimethylazanium Bromide], for which the IC50 was more than 10 µM.

With `COC[N+](C)(C)CCO` [Compound 212, (2-hydroxyethyl)(methoxymethyl)dimethylazanium trifluoroacetate], the half-maximal inhibitory concentration (IC50) came to 1.99 µM.

With `C#CC[N+](C)(C)Cc1ncno1` [Compound 224], the IC50 worked out at 0.223 µM.

For `C#CC[N+](C)(C)C[C@@H](C)C(=O)OC` [Compound 174, [(2R)-3-methoxy-2-methyl-3-oxopropyl]dimethyl(prop-2-yn-1-yl)azanium], the IC50 was found to be 0.17 µM.

In the case of `C#CC[N+]1(CF)CCCC1` [Compound 187, 1-(fluoromethyl)-1-(prop-2-yn-1-yl)pyrrolidin-1-ium], the IC50 came out at 0.763 µM.

For `C=C(C[N+](C)(C)CF)C(=O)O` [Compound 171, (2-carboxy-2-methylideneethyl)(fluoromethyl)dimethylazanium Iodide], the IC50 is not below 10 µM.

As to `CSC[N+](C)(C)CCO` [Compound 195, (2-hydroxyethyl)dimethyl[(methylsulfanyl)methyl]azanium], the IC50 was more than 10 µM.

With `C=CC[N+](C)(C)CC(=C)C(=O)OC` [Compound 203, N-allyl-2-(methoxycarbonyl)-N,N-dimethylprop-2-en-1-aminium 2,2,2-trifluoroacetate], the 50% inhibitory concentration (IC50) came to 1.72 µM.

For the compound `C#CC[N+](C)(C)CC1OC1C` (stereo not shown) [Compound 181, dimethyl[(3-methyloxiran-2-yl)methyl](prop-2-yn-1-yl)azanium], the IC50 is more than 10 µM.

`C#CC[N+](C)(C)CCS(=O)(=O)O` [Compound 221, dimethyl(prop-2-yn-1-yl)(2-sulfoethyl)azanium Trifluoroacetate]: the 50% inhibitory concentration (IC50) was more than 10 µM.

Regarding `C#CC[N+](C)(CC#C)CCS(=O)(=O)O` [Compound 223, methylbis(prop-2-yn-1-yl)(2-sulfoethyl)azanium], the IC50 was 2.28 µM.

For the compound `C[N+](C)(CCO)CC1COC1` [Compound 184, (2-hydroxyethyl)dimethyl[(oxetan-3-yl)methyl]azanium Bromide], the IC50 was more than 10 µM.

Turning to `C[N+]1(C)CCOCC1CO` (stereo not shown) [Compound 220, 3-(hydroxymethyl)-4,4-dimethylmorpholin-4-ium], the IC50 was more than 10 µM.

With `C#CC[N+](C)(C)CCO[C@H]1CO[C@H]2[C@@H]1OC[C@H]2OCC[N+](C)(C)CC#C` [Compound 71, N,N′-((((3R,3aR,6S,6aR)-hexahydrofuro[3,2-b]furan-3,6-diyl)bis(oxy))bis(ethane-2,1-diyl))bis(N,N-dimethylprop-2-yn-1-aminium) bistrifluoroacetate], the IC50 is not below 10 µM.

`C#CC[N+](C)(C)CCC(=O)NS(C)(=O)=O` [Compound 215, [2-(methanesulfonylcarbamoyl)ethyl]dimethyl(prop-2-yn-1-yl)azanium]: the IC50 amounted to 0.409 µM.

Consider `C#CC[N+]1(CC#C)CCCC1` [Compound 188, 1,1-bis(prop-2-yn-1-yl)pyrrolidin-1-ium Bromidebromide], for which the half-inhibitory concentration (IC50) was more than 10 µM.

Take `CC[N+](C)(CF)CCO` (stereo not shown) [Compound 213, ethyl(fluoromethyl)(2-hydroxyethyl)(methyl)azanium Iodide]: the half-maximal inhibitory concentration (IC50) is 0.18 µM.

`C#CC[N+](C)(C)Cc1ncco1` [Compound 207, dimethyl[(1,3-oxazol-2-yl)methyl](prop-2-yn-1-yl)azanium Chloride]: the concentration for half-maximal inhibition (IC50) amounted to 0.31 µM.

With `C[N+](C)(CCO)CCO` [Compound 157, 2-hydroxy-N-(2-hydroxyethyl)-N,N-dimethylethan-1-aminium Iodide], the half-maximal inhibitory concentration (IC50) is not below 10 µM.

As for `C#CC[N+]1(CF)CC[C@@H](O)C1` (stereo partly drawn) [Compound 214, (3R)-1-(fluoromethyl)-3-hydroxy-1-(prop-2-yn-1-yl)pyrrolidin-1-ium], the IC50 came out at 3.87 µM.

For `C#CC[N+]1(CC#C)CC[C@@H](O)C1` [Compound 200, (3R)-3-hydroxy-1,1-bis(prop-2-yn-1-yl)pyrrolidin-1-ium], the half-inhibitory concentration (IC50) came to 2.74 µM.

With `C#CC[N+](C)(C)CC(C)=O` [Compound 197, dimethyl(2-oxopropyl)(prop-2-yn-1-yl)azanium Bromide], the 50% inhibitory concentration (IC50) is 4.97 µM.

As for `C[N+](C)(C)CC1CC1` [Compound 178, (cyclopropylmethyl)trimethylazanium Iodide], the half-maximal inhibitory concentration (IC50) is not below 10 µM.

The same experiment, now with this note: read-out: Average IC50 Whole cell P. mirabilis; d9-TMA from 1 mM d9-choline, 5 h, 37° C.; value 10 given when no fit or % TMA remaining at 10 μM higher than 15%.
Consider `C#CC[N+](C)(C)CCP(=O)(O)O` [Compound 210, {2-[dimethyl(prop-2-yn-1-yl)azaniumyl]ethyl}phosphonic Acid], for which the 50% inhibitory concentration (IC50) is more than 10 µM.

Consider `C#CC[N+](C)(C)CC[PH](=O)O` [Compound 227, {2-[dimethyl(prop-2-yn-1-yl)azaniumyl]ethyl}phosphinic Acid], for which the half-maximal inhibitory concentration (IC50) is more than 10 µM.

In the case of `C[N+](C)(CCO)CCF` [Compound 186, (2-fluoroethyl)(2-hydroxyethyl)dimethylazanium], the IC50 was more than 10 µM.

In another experiment the test system is CutC/D enzyme. As to the kind of experiment: Acute mouse model (plasma TMAO on choline diet). In kind it is in vivo, male C57BL/6 mice. As to conditions: Table 4g, 116 mg/kg oral gavage days 1-3. Here is the method: The following acute mouse model may be used to determine inhibition of the CutC/D enzyme and thus the inhibition of the formation of trimethylamine (TMA) from choline.
On day 1, male C57BL/6 mice were given a chemically defined diet (Tekland Global Rodent Diet 2018) containing 1.0% choline (g/g) for the duration of the experiment. Concurrently on day 1, mice were orally gavaged with 200 μL of compounds of interest (formulated in water). Mice were orally gavaged with the compounds and vehicle control again on day 2 and day 3 at a fixed time. Twenty hours after the last gavage, mice were sacrificed, and plasma was collected and prepared for detection of trimethylamine-N-oxide (TMAO) via liquid chromatography with on-line tandem mass spectrometry (LC-MS/MS). Food consumption and mouse weight were measured each day.
Plasma samples were prepared for LCMS as follows: An aliquot of 20 μL plasma sample was protein precipitated with 200 μL internal standard solution (100 ng/mL Labetalol & 100 ng/mL Tolbutamide & 100 ng/mL Diclofenac in acetonitrile, the mixture was vortex-mixed and centrifuged at 4000 rpm for 15 min, 4° C. An aliquot of 100 μL supernatant was transferred to the sample plate for LCMS injection. 1 μL of sample was injected onto an LC column for TMAO LCMS analysis.
Concentrations of TMAO were determined with a calibration curve ranging 0.05-100 μM for d9-TMAO in control plasma.
As to `C[N+]1(CF)CCC[C@@H]1CO` (stereo partly drawn) [Compound 151, (2R)-1-(fluoromethyl)-2-(hydroxymethyl)-1-methylpyrrolidin-1-ium Iodide], the “% change from vehicle control + choline diet” value (“% change” for short) is recorded as 6%.

Still in this experiment, the particulars now being: Table 4g, 116 mg/kg oral gavage days 1-3, plasma 20 h after last gavage.
`C[N+]1(CF)CCC[C@@H]1CO` (stereo partly drawn) [Compound 151, (2R)-1-(fluoromethyl)-2-(hydroxymethyl)-1-methylpyrrolidin-1-ium Iodide]: the “Mean plasma TMAO” value stood at 29.4 µM.

Staying with this experiment, now noted: Table 4d, 10 mg/kg oral gavage days 1-3.
As for `C#CC[N+](C)(C)CCCCOC1O[C@@H](C)[C@@H](OC(=O)CCC)[C@@H](OC(=O)CCC)[C@@H]1OC(=O)CCC.[Br-]` (stereo partly drawn) [Compound 58, N,N-dimethyl-N-(prop-2-yn-1-yl)-4-(((3S,4R,5R,6S)-3,4,5-tris(butyryloxy)-6-methyltetrahydro-2H-pyran-2-yl)oxy)butan-1-aminium bromide], the “% change” value is −46%.

Still in this experiment, the particulars now being: Table 4d, 10 mg/kg oral gavage days 1-3, plasma 20 h after last gavage.
Consider `C#CC[N+](C)(C)CCCCOC1O[C@@H](C)[C@@H](OC(=O)CCC)[C@@H](OC(=O)CCC)[C@@H]1OC(=O)CCC.[Br-]` (stereo partly drawn) [Compound 58, N,N-dimethyl-N-(prop-2-yn-1-yl)-4-(((3S,4R,5R,6S)-3,4,5-tris(butyryloxy)-6-methyltetrahydro-2H-pyran-2-yl)oxy)butan-1-aminium bromide], for which the “Mean plasma TMAO” value was 10.1 µM.

Still in this experiment, the particulars now being: Table 4d, 35.4 mg/kg oral gavage days 1-3.
For `CC(=O)OC[C@H]1OC(OCC[N+](C)(C)C2CC2)[C@H](OC(C)=O)[C@@H](OC(C)=O)[C@@H]1OC(C)=O.[I-]` (stereo partly drawn) [Compound 312, N,N-dimethyl-N-(2-(((3R,4S,5R,6R)-3,4,5-triacetoxy-6-(acetoxymethyl)tetrahydro-2H-pyran-2-yl)oxy)ethyl)cyclopropanaminium iodide], the “% change” value is −38%.

Staying with this experiment, now noted: Table 4d, 35.4 mg/kg oral gavage days 1-3, plasma 20 h after last gavage.
On to `CC(=O)OC[C@H]1OC(OCC[N+](C)(C)C2CC2)[C@H](OC(C)=O)[C@@H](OC(C)=O)[C@@H]1OC(C)=O.[I-]` (stereo partly drawn) [Compound 312, N,N-dimethyl-N-(2-(((3R,4S,5R,6R)-3,4,5-triacetoxy-6-(acetoxymethyl)tetrahydro-2H-pyran-2-yl)oxy)ethyl)cyclopropanaminium iodide], for which the “Mean plasma TMAO” value came to 11.69 µM.

The same experiment, now with this note: Table 4d, 100 mg/kg oral gavage days 1-3.
As for `C#CC[N+](C)(C)CCOC1OC[C@@H](OC(C)=O)[C@@H](OC(C)=O)[C@H]1OC(C)=O.[Br-]` (stereo partly drawn) [Compound 9, N,N-dimethyl-N-(2-(((3R,4R,5R)-3,4,5-triacetoxytetrahydro-2H-pyran-2-yl)oxy)ethyl)prop-2-yn-1-aminium bromide], the “% change” value is 80%.

On to `C#CC[N+](C)(C)CCO[C@@H]1OC[C@H](OC(C)=O)[C@H](OC(C)=O)[C@H]1OC(C)=O.[I-]` [Compound 10, N,N-dimethyl-N-(2-(((3R,4S,5S)-3,4,5-triacetoxytetrahydro-2H-pyran-2-yl)oxy)ethyl)prop-2-yn-1-aminium Iodide], for which the “% change” value is reported as −21%.

Still in this experiment, the particulars now being: Table 4d, 100 mg/kg oral gavage days 1-3, plasma 20 h after last gavage.
For the compound `C#CC[N+](C)(C)CCOC1OC[C@@H](OC(C)=O)[C@@H](OC(C)=O)[C@H]1OC(C)=O.[Br-]` (stereo partly drawn) [Compound 9, N,N-dimethyl-N-(2-(((3R,4R,5R)-3,4,5-triacetoxytetrahydro-2H-pyran-2-yl)oxy)ethyl)prop-2-yn-1-aminium bromide], the “Mean plasma TMAO” value is 33.91 µM.

In the case of `C#CC[N+](C)(C)CCO[C@@H]1OC[C@H](OC(C)=O)[C@H](OC(C)=O)[C@H]1OC(C)=O.[I-]` [Compound 10, N,N-dimethyl-N-(2-(((3R,4S,5S)-3,4,5-triacetoxytetrahydro-2H-pyran-2-yl)oxy)ethyl)prop-2-yn-1-aminium Iodide], the “Mean plasma TMAO” value came out at 14.9 µM.

The IC50 is the concentration at which inhibition is half-maximal.
